According to patent US11623919B2, “Heterocyclic P2X7 antagonists” (AXXAM S.P.A., priority 2017, dated 2023):

Experiments:
[1] = target: T1, P2X7 receptor (Rattus norvegicus, UniProt Q64663); test: Screen Quest Fluo-8 No Wash Calcium Assay (Bz-ATP evoked Ca2+ influx, FLIPR); format: cell-based; conditions: rP2X7; HEK-293 cells stably transfected with P2X7 receptor, Bz-ATP at EC80, Fluo-8 NW; potency ranges A-D
T1 construct: rP2X7 (IC50; nM); other: rP2X7; HEK-293 cells stably transfected with P2X7 receptor, Bz-ATP at EC80, Fluo-8 NW; potency
T1 sequence (Q64663 1-595): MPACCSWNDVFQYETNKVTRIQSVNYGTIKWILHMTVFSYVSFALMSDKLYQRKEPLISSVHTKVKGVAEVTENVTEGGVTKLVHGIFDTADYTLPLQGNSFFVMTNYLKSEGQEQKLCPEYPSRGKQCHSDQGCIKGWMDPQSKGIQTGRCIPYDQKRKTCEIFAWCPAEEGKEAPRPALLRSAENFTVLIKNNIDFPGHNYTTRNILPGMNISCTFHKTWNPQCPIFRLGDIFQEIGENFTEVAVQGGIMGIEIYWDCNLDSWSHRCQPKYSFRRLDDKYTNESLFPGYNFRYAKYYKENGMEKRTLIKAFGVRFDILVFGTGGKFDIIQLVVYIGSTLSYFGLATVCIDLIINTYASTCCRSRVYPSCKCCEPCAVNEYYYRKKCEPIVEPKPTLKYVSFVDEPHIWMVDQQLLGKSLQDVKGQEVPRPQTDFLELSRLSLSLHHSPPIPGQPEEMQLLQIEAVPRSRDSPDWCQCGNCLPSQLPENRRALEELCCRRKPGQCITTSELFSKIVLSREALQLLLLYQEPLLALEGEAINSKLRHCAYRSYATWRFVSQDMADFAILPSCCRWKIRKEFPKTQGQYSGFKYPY
Procedure, shortened: (§1)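 HEK-293 cells stably expressing P2X7 were loaded with Fluo-8 NW for 1 h at RT, then given compound, and 5 min later Bz-ATP at EC80. Fluorescence was read by FLIPR in low divalent cation buffer (0.3 mM Ca2+, 0 mM Mg2+). IC50 came from percent inhibition relative to reference antagonist A438079.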

[2] = target: T2, P2X7 receptor (Mus musculus, UniProt Q9Z1M0); test: as above; format: cell-based; conditions: mP2X7; HEK-293 cells stably transfected with P2X7 receptor, Bz-ATP at EC80, Fluo-8 NW; potency ranges A-D
T2 construct: mP2X7 (IC50; nM); other: mP2X7; HEK-293 cells stably transfected with P2X7 receptor, Bz-ATP at EC80, Fluo-8 NW; potency
T2 sequence (Q9Z1M0 1-595): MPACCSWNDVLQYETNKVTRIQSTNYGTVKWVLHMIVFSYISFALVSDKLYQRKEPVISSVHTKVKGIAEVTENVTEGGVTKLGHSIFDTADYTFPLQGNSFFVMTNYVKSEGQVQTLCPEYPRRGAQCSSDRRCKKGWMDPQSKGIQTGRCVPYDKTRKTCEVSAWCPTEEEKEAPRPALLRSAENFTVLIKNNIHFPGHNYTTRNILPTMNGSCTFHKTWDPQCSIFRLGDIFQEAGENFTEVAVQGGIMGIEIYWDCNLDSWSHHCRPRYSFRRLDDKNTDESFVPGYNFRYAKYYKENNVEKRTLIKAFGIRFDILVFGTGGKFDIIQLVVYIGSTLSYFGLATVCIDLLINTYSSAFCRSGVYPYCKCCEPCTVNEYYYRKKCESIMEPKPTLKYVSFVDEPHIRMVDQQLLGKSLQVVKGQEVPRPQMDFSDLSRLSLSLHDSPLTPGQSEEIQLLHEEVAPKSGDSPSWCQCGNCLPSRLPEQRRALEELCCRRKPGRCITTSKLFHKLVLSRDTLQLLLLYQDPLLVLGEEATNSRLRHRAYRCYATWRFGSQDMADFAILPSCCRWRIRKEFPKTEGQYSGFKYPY
Procedure, shortened: as §1

IC50 [1]	IC50 [2]	SMILES
< 200 nM	200 to 1000 nM	O=c1onc(Cc2c(F)cccc2Cl)n1CC1CCCCCC1 [Example 92, 3-[(2-chloro-6-fluorophenyl)methyl]-4-(cycloheptylmethyl)-4,5-dihydro-1,2,4-oxadiazol-5-one]
< 200 nM	200 to 1000 nM	CC1CCCCC1Cn1c(Cc2c(F)cccc2Cl)noc1=O (centres unmarked) [Example 87, 3-[(2-chloro-6-fluorophenyl)methyl]-4-[(2-methylcyclohexyl)methyl]-4,5-dihydro-1,2,4-oxadiazol-5-one]
200 to 1000 nM	200 to 1000 nM	O=c1onc(Cc2c(F)cccc2Cl)n1CC1(F)CCCCC1 [Example 96, 3-[(2-chloro-6-fluorophenyl)methyl]-4-[(1-fluorocyclohexyl)methyl]-4,5-dihydro-1,2,4-oxadiazol-5-one]
200 to 1000 nM	1000 to 10000 nM	O=c1onc(Cc2ccccc2C(F)(F)F)n1CC1CCCCC1 [Example 116, 4-(cyclohexylmethyl)-3-{[2-(trifluoromethyl)phenyl]methyl}-4,5-dihydro-1,2,4-oxadiazol-5-one]
200 to 1000 nM	1000 to 10000 nM	O=c1onc(Cc2ccc(Cl)cc2Cl)n1CC1CCCCC1 [Example 118, 4-(cyclohexylmethyl)-3-[(2,4-dichlorophenyl)methyl]-4,5-dihydro-1,2,4-oxadiazol-5-one]
200 to 1000 nM	1000 to 10000 nM	O=c1onc(Cc2cccc(F)c2)n1Cc1c(F)cccc1Cl [Example 81, 4-[(2-chloro-6-fluorophenyl)methyl]-3-[(3-fluorophenyl)methyl]-4,5-dihydro-1,2,4-oxadiazol-5-one]
200 to 1000 nM	200 to 1000 nM	O=c1onc(Cc2c(F)cccc2Cl)n1CCC1CCCCC1 [Example 142, 3-(2-chloro-6-fluorobenzyl)-4-(2-cyclohexylethyl)-1,2,4-oxadiazol-5(4H)-one]
< 200 nM	< 200 nM	O=c1onc(Cc2c(F)cccc2Cl)n1CC1CCCCC1 [Example 82, 3-[(2-chloro-6-fluorophenyl)methyl]-4-(cyclohexylmethyl)-4,5-dihydro-1,2,4-oxadiazol-5-one]
200 to 1000 nM	200 to 1000 nM	O=c1onc(Cc2c(F)cccc2Cl)n1Cc1ccc(F)cc1 [Example 55, 3-[(2-chloro-6-fluorophenyl)methyl]-4-[(4-fluorophenyl)methyl]-4,5-dihydro-1,2,4-oxadiazol-5-one]
< 200 nM	200 to 1000 nM	O=c1onc(Cc2c(F)cccc2Cl)n1CC12CCC(CC1)C2 [Example 91, 4-{bicyclo [2.2.1]heptan-1-ylmethyl}-3-[(2-chloro-6-fluorophenyl)methyl]-4,5-dihydro-1,2,4-oxadiazol-5-one]
200 to 1000 nM	200 to 1000 nM	CC(c1ccc(F)cc1)n1c(Cc2c(F)cccc2Cl)noc1=O (centres unmarked) [Example 48, 3-[(2-chloro-6-fluorophenyl)methyl]-4-[1-(4-fluorophenyl)ethyl]-4,5-dihydro-1,2,4-oxadiazol-5-one]
200 to 1000 nM	200 to 1000 nM	CC1(C)CCCCC1Cn1c(Cc2c(F)cccc2Cl)noc1=O (centres unmarked) [Example 99, 3-[(2-chloro-6-fluorophenyl)methyl]-4-[(2,2-dimethylcyclohexyl)methyl]-4,5-dihydro-1,2,4-oxadiazol-5-one]
< 200 nM	200 to 1000 nM	O=c1onc(Cc2ccc(F)cc2Cl)n1CC1CCCCC1 [Example 114, 3-[(2-chloro-4-fluorophenyl)methyl]-4-(cyclohexylmethyl)-4,5-dihydro-1,2,4-oxadiazol-5-one]
